Source: US20220194938A1, “NOVEL COMPOUNDS AND PHARMACEUTICAL COMPOSITIONS THEREOF FOR THE TREATMENT OF INFLAMMATORY DISORDERS” (GALAPAGOS NV, priority 2019, published 2022)

Test system: Collagen Induced Arthritis (CIA)
Assay: Mouse collagen induced arthritis (CIA) model
Assay type: in vivo
Details: mouse CIA, 3, 10 and 30 mg/kg b.i.d., versus disease vehicle group
Method: 5.1. CIA Model 5.1.1. Materials Completed Freund's adjuvant (CFA) and incomplete Freund's adjuvant (IFA) were purchased from Difco. Bovine collagen type II (CII), lipopolysaccharide (LPS), and Enbrel was obtained from Chondrex (Isle d'Abeau, France); Sigma (P4252, L'Isle d'Abeau, France), […] (25 mg injectable syringe, France) Acros Organics (Palo Alto, Calif.), respectively. All other reagents used were of reagent grade and all solvents were of analytical grade. 5.1.2. Animals DBA1/J mice (male, 7-8 weeks old) were obtained from Charles River Laboratories (France). Mice were kept on a 12 h light/dark cycle (07 h00-19 h00). Temperature was maintained at 22° C., and food and water were provided ad libitum. 5.1.3. Collagen Induced Arthritis (CIA) One day before the experiment, CII solution (2 mg/mL) was prepared with 0.05 M acetic acid and stored at 4° C. Just before the immunization, equal volumes of adjuvant (IFA) and CII were mixed by a homogenizer in a pre-cooled glass bottle in an ice water bath. Extra adjuvant and prolonged homogenization may be required if an emulsion was not formed. […] Body weight and clinical score, were recorded twice a week. […] Clinical Assessment of Arthritis Arthritis is scored according to the method of (Khachigian 2006; Lin et al. 2007; Nishida et al. 2004). […] Results For each readout, mean and sem were calculated. […]

CNC(=O)c1cc2nc(CCC(C)(C)O)cn2cc1NC(=O)c1cccc(C(F)(F)F)n1 [Compound 2, 2-(3-hydroxy-3-methyl-butyl)-N-methyl-6-[[6-(trifluoromethyl)pyridine-2-carbonyl]amino]imidazo[1,2-a]pyridine-7-carboxamide]
effect on bone erosion Larsen Score: statistically significant effect
